Data published in ChEMBL document CHEMBL1141150, “Synthesis of classical, four-carbon bridged 5-substituted furo[2,3-d]pyrimidine and 6-substituted pyrrolo[2,3-d]pyrimidine analogues as antifolates” (J Med Chem, 2005).

How the values were obtained:
CCRF-CEM [1] = assay: Growth inhibitory activity against CCRF-CEM human lymphoblastic leukemia cells; assay type: functional, cell-based
Dihydrofolate reductase [2] = target: T1, Dihydrofolate reductase (Escherichia coli, UniProt P0ABQ4)
T1 sequence (P0ABQ4 whole entry): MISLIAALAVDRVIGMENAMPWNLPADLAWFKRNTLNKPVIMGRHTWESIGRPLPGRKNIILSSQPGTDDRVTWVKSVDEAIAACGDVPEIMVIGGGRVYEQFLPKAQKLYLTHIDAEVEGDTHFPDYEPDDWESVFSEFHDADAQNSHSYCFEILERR
Description: Inhibition of Escherichia coli dihydrofolate reductase at 37 degree C pH 7.4

CCRF-CEM [3] = assay: Growth inhibitory activity against MTX resistant CCRF-CEM human lymphoblastic leukemia cells with decreased polyglutamylation; assay type: functional, cell-based
Dihydrofolate reductase [4] = target: T2, Dihydrofolate reductase (Homo sapiens, UniProt P00374)
T2 sequence (P00374 whole entry): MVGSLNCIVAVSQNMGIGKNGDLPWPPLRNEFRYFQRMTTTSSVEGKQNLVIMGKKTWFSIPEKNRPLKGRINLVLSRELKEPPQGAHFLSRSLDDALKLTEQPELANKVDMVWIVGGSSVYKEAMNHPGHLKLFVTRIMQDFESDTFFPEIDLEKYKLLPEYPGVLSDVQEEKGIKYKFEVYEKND
Description: Inhibition of human dihydrofolate reductase at 37 degree C pH 7.4

Thymidylate synthase [5] = target: Thymidylate synthase (Escherichia coli, UniProt C3SWJ7); assay: Inhibition of Escherichia coli thymidylate synthetase at 37 degree C pH 7.4
Thymidylate synthase (Escherichia coli, UniProt C3SWJ7), sequence (C3SWJ7 whole entry): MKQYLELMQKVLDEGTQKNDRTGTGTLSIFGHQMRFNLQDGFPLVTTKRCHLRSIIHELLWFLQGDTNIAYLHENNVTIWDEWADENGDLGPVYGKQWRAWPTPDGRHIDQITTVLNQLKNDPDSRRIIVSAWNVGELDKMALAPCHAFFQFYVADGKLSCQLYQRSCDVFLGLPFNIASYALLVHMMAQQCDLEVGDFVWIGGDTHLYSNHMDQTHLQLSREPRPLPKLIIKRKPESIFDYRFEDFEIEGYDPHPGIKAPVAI

[6] = Ratio of Vmax, rel to Km (FPGS substrate activity) for recombinant human FPGS; assay type: ADME
Thymidylate synthase [7] = target: T3, Thymidylate synthase (Lactobacillus casei, UniProt P00469); assay: Inhibition of Lactobacillus casei thymidylate synthetase at 37 degree C pH 7.4; design: species or system Lacticaseibacillus casei
T3 sequence (P00469 whole entry): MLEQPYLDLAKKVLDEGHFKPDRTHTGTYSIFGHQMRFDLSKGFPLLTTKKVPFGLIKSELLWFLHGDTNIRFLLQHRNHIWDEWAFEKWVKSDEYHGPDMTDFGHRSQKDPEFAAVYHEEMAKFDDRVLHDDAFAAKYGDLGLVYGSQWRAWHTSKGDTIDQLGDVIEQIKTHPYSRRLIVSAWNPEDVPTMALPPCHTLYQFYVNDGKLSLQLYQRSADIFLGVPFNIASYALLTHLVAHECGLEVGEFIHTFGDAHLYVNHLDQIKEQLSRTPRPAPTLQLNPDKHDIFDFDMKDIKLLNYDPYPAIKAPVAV

Dihydrofolate reductase [8] = target: Dihydrofolate reductase (Lactobacillus casei, UniProt P00381)
Dihydrofolate reductase (Lactobacillus casei, UniProt P00381), sequence (P00381 whole entry): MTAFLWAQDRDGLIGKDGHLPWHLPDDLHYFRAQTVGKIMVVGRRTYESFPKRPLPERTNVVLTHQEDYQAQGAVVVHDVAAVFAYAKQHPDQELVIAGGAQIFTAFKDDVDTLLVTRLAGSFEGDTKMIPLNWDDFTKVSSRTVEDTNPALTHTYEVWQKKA
Description: Inhibition of Lactobacillus casei dihydrofolate reductase at 37 degree C pH 7.4

CCRF-CEM [9] = assay: Growth inhibitory activity against resistant CCRF-CEM human lymphoblastic leukemia cells with decreased uptake of MTX; assay type: functional, cell-based
[10] = Vmax, rel (FPGS substrate activity) for recombinant human FPGS; assay type: ADME
Thymidylate synthase [11] = target: Thymidylate synthase (Homo sapiens, UniProt P04818); assay: Inhibition of human thymidylate synthetase at 37 degree C pH 7.4
Thymidylate synthase (Homo sapiens, UniProt P04818), sequence (P04818 whole entry): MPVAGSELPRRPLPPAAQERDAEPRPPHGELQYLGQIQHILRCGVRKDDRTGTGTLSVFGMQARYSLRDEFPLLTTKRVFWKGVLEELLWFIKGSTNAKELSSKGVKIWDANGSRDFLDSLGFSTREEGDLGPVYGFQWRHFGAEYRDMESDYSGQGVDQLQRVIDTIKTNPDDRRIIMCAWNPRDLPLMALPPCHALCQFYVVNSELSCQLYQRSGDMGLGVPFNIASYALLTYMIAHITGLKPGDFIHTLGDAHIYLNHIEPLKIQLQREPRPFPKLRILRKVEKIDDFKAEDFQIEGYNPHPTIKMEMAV

CCRF-CEM [12] = assay: Growth inhibitory activity against MTX resistant subline of CCRF-CEM human lymphoblastic leukemia cells; assay type: functional, cell-based
CCRF-CEM [13] = assay: Protection of CCRF-CEM human leukemia cells against the growth inhibitory effect of MTX by 10 uM of hypoxanthine at 5000 nM concentration of compound; assay type: functional
HL-60 = assay: Cytotoxicity of compound aganist HL-60 leukemia cell line; assay type: functional; settings: Homo sapiens
SR = assay: Cytotoxicity of compound against SR leukemia cell line; assay type: functional; settings: Homo sapiens
K562 = assay: Cytotoxicity of compound against […] leukemia cell line; assay type: functional; settings: Homo sapiens
786-0 = assay: Cytotoxicity of compound against 786-0 renal cancer cell line; assay type: functional; settings: Homo sapiens
CCRF-CEM [14] = assay: Protection of CCRF-CEM human leukemia cells against the growth inhibitory effect of MTX by 5 uM of thymidine at 5000 nM concentration of compound; assay type: functional
CCRF-CEM [15] = assay: Protection of CCRF-CEM human leukemia cells against the growth inhibitory effect of MTX by 10 uM of hypoxanthine and 5 uM of thymidine at 5000 nM concentration of compound; assay type: functional
SW-620 = assay: Cytotoxicity of compound against SW-620 colon cancer cell line; assay type: functional; settings: Homo sapiens

| Compound | EC50 (CCRF-CEM [1]) [µM] | IC50 (Dihydrofolate reductase [2]) [µM] | EC50 (CCRF-CEM [3]) [µM] | IC50 (Dihydrofolate reductase [4]) [µM] | IC50 (Thymidylate synthase [5]) [µM] | Ratio [6] | IC50 (Thymidylate synthase [7]) [µM] | IC50 (Dihydrofolate reductase [8]) [µM] | EC50 (CCRF-CEM [9]) [µM] | Vmax rel [10] | IC50 (Thymidylate synthase [11]) [µM] | EC50 (CCRF-CEM [12]) [µM] | also measured |
| --- | --- | --- | --- | --- | --- | --- | --- | --- | --- | --- | --- | --- | --- |
| Nc1nc2[nH]c(CCCc3ccc(C(=O)N[C@@H](CCC(=O)O)C(=O)O)cc3)cc2c(=O)[nH]1 | 0.46 | 22 | 0.47 | > 24 | > 180 | 0.63 | > 100 | > 110 | 4.35 | 0.57 | > 17 | 0.86 | – |
| Nc1nc(N)c2c(CCCCc3ccc(C(=O)N[C@@H](CCC(=O)O)C(=O)O)cc3)coc2n1 | 0.12 | 21 | 3.15 | 21 | > 100 | 0.27 | > 100 | 10 | 0.265 | 0.54 | > 18 | 4.85 | Relative growth (CCRF-CEM [13]): 21%; GI50 (HL-60): 0.0381 µM; GI50 (SR): 0.0478 µM; GI50 (K562): 0.214 µM; GI50 (786-0): > 100 µM; Relative growth (CCRF-CEM [14]): 20%; Relative growth (CCRF-CEM [15]): 74%; GI50 (SW-620): 0.0783 µM |
| Nc1nc(N)c2c(CCCc3ccc(C(=O)N[C@@H](CCC(=O)O)C(=O)O)cc3)coc2n1 | 0.06 | – | 0.084 | – | – | – | – | 10 | 1.05 | – | – | ≥ 4.6 | – |
| Nc1nc(N)c2c(CCc3ccc(C(=O)N[C@@H](CCC(=O)O)C(=O)O)cc3)coc2n1 | – | – | – | – | – | 0.07 | – | – | – | 0.65 | – | – | – |
| Nc1nc2[nH]c(CCCCc3ccc(C(=O)N[C@@H](CCC(=O)O)C(=O)O)cc3)cc2c(=O)[nH]1 | 1.1 | 100 | 18 | > 20 | > 170 | 0.086 | > 100 | > 110 | 8.1 | 0.54 | > 17 | 3.05 | Relative growth (CCRF-CEM [13]): 85%; GI50 (HL-60): 6.56 µM; GI50 (SR): 0.609 µM; GI50 (K562): 0.398 µM; GI50 (786-0): 0.898 µM; Relative growth (CCRF-CEM [14]): 18%; Relative growth (CCRF-CEM [15]): 85%; GI50 (SW-620): 3.81 µM |
| Nc1nc(N)c2nc(CNc3ccc(C(=O)N[C@@H](CCC(=O)O)C(=O)O)cc3)cnc2n1 [AMINOPTERIN] | – | – | – | – | – | 0.19 | – | – | – | 1 | – | – | – |
| Nc1nc2[nH]cc(CCc3ccc(C(=O)N[C@@H](CCC(=O)O)C(=O)O)cc3)c2c(=O)[nH]1 [PEMETREXED] | – | – | – | – | – | – | – | – | – | – | – | – | Ki (Thymidylate synthase [11]): 0.34 µM |
